The molecules below were run on panelist (assay: Odor detection threshold (ODT) by gas chromatograph with sniff port). Conditions: GC sniff port, average across panelists.
Design: species or system human
Experimental: Odor detection thresholds are determined using a gas chromatograph. The gas chromatograph is calibrated to determine the exact volume of material injected by the syringe, the precise split ratio, and the hydrocarbon response using a hydrocarbon standard of known concentration and chain-length distribution. The air flow rate is accurately measured and, assuming the duration of a human inhalation to last […], the sampled volume is calculated. […] A panelist sniffs the GC effluent and identifies the retention time when odor is noticed. The average across all panelists determines the threshold of noticeability. […] Typical gas chromatograph parameters for determining odor detection thresholds are listed below. • GC: 5890 Series II with FID detector • 7673 Autosampler • Column: J&W Scientific DB-1 • Length 30 meters ID 0.25 mm film thickness 1 micron • Method: • Split Injection: 17/1 split ratio • Autosampler: 1.13 microliters per injection • Column Flow: 1.10 mL/minute • Air Flow: 345 mL/minute • Inlet Temp. 245° C. • Detector Temp. 285° C. • Temperature Information • Initial Temperature: 50° C. • Rate: 5 C/minute • Final Temperature: 280° C. • Final Time: 6 minutes • Leading assumptions: • (i) 12 seconds per sniff • (ii) GC air adds to sample dilution A-High Impact Accord (“HIA”) Perfume Ingredients of Class 1
With 3-Methyl-4(5)-Cyclopentadecenone the ODT was <50 PPB.
For `CC1COC(C)(c2ccc3c(c2)C(C)(C)CCC3(C)C)O1` (stereo not shown) [2,4,Dimethyl-2-(1,1,4,4 tetramethyl) tetralin-6-yl)-13-dioxolane], the ODT was <50 PPB.
`CC1=CCC(C(C)CC2CCCC2=O)CC1` (stereo not shown) [2-(2-(4 methyl-3-Cyclohexen-1-yl)propyl)-cyctopentanone.] was tested, and the ODT was <50 PPB.
In the case of `CC(CO)C1CCCCCCCCCCC1` (stereo not shown) [2-(Cyclododecyl)-propan-1-ol], the ODT is reported as <50 PPB.
With `CC1=CCC(C=CC(C)C(C)O)C1(C)C` (stereo not shown) [3-Methyl-5-(2,2,3,trimethyl-3-cyclopenten-1-yl)-4-penten-2-ol] the ODT was <50 PPB.
In the case of `O=C1CCCC=CCCCCCCCCCC1` [5-Cyclohexadecenone-1], the ODT is reported as <50 PPB.
With `CC1C(C)(C)C2=C(C(=O)CCC2)C1(C)C` (stereo not shown) [6,7Dihydro-1,1,2,3,3-Penta-Methyl-4(5H)-Indanone] the ODT was <50 PPB.
For `CC(=O)C1(C)CC2=C(CCCC2(C)C)CC1C` (stereo not shown) [7,Acetyl,1,2,3,4,5,6,7,8-Octahydro-1,1,6,7-Tetra Methyl Naphthalene], the ODT was <50 PPB.
`COc1ccc(C=O)cc1` [Anisic Aldehyde] was tested, and the ODT was <50 PPB.
For `CC/C=C\CCOC(=O)c1ccccc1O` [Cis-3-Hexenyl Salicylate], the ODT was <50 PPB.
For `CC1=CC(C)C(C=O)CC1` (stereo not shown) [Cyclal C], the ODT was <50 PPB.
In the case of `CCCC(O)CCC1C(C)CCCC1(C)C` (stereo not drawn) [Cyclohexane Propanol 2,2,6 Trimethyl-Alpha-Propyl.], the ODT is reported as <50 PPB.
In the case of `CCOC(=O)C(C)CC` (stereo not shown) [Ethyl-2-methyl Butyrate], the ODT is reported as <50 PPB.
`CC(=O)OC1CC2CC1C1CC=CC21` (stereo not shown) [Flor Acetate] was tested, and the ODT was <50 PPB.
In the case of `CCC(=O)OC1CC2CC1C1CC=CC21` (stereo not shown) [Frutene], the ODT is reported as <50 PPB.
With `CC(=O)/C=C/C1=C(C)CCCC1(C)C` [Ionone Beta] the ODT was <50 PPB.
With `C=CC(C)(O)CCC=C(C)C` (stereo not shown) [Linalool] the ODT was <50 PPB.
For `CCCCCCC#CC(=O)OC` [Methyl Octine Carbonate], the ODT was <50 PPB.
In the case of `CCC12CCC3C(C)(C)CCCC3(C)C1CCO2` (stereo not shown) [Naphtho(2.1-B)-furan,3A-Ethyl Dodecahydro-6,6,9A-Trimethyl], the ODT is reported as <50 PPB.
In the case of `CC(C)=CC1CC(C)CCO1` (stereo not shown) [Rose Oxide], the ODT is reported as <50 PPB.
`CCCCCCCCCCC=CC#N` [Tridecene-2-nitrile] was tested, and the ODT was <50 PPB.
For Oxacyclohexadecen-2-one, the ODT was <50 PPB.
